Laboratory results taken from publication PMC3873415, “A Non-Biological Method for Screening Active Components against Influenza Virus from Traditional Chinese Medicine by Coupling a LC Column with Oseltamivir Molecularly Imprinted Polymers” (PLoS ONE, 2013).
“Also recorded” adds a separate entry of the source.

System: Influenza virus strain A/Goose/Dalian/3/2001 (H9N2)
Format: cell-based, avian influenza virus H9N2
Conditions: not given

Compound	Activity: HI
phillyrin	had HI activity; also recorded: There was no H in 0.25 mg/ml phillyrin-treated group at 24 h and in 0.5mg/ml phillyrin-treated group at 24 or 48 h
O=C(/C=C/c1ccc(O)c(O)c1)O[C@@H]1C[C@](O)(C(=O)O)C[C@@H](O)[C@H]1O [chlorogenic acid]	No differences between all treatment and control groups.
CC(=O)Oc1ccccc1C(=O)O [aspirin]	No differences between all treatment and control groups.
O=C1CCC[C@@H]2[C@H]3CCCN4CCC[C@H](CN12)[C@@H]34 [sophoridine]	had HI activity only at concentration of TCD0; also recorded: There was no H of 2 mg/ml sophoridine-treated group at any test time points. But the rest test groups had H at all test time points
O=C1CCC[C@@H]2[C@H]3CCC[N+]4([O-])CCC[C@@H](CN12)[C@@H]34 (stereo partly shown) [oxymatrine]	No differences between all treatment and control groups.
O=C1CCC[C@@H]2[C@H]3CCC[N+]4([O-])CCC[C@H](CN12)[C@@H]34 (stereo partly shown) [oxysophoridine]	No differences between all treatment and control groups
CCOC(=O)C1=C[C@@H](OC(CC)CC)[C@H](NC(C)=O)[C@@H](N)C1 [OS (template), Oseltamivir]	No hemagglutination (H) was found in all tested groups at 24, 48 or 72 h.
O=C1CCC[C@@H]2[C@H]3CCCN4CCC[C@@H](CN12)[C@@H]34 [matrine]	There was no H in 0.2 mg/ml matrine-treated group at 24 h and in 0.4mg/ml matrine-treated group at 24 or 48 h.

System: MDCK cells
Conditions: dog

Compound	TCD0 (maximum non-toxic concentration)
O=C(/C=C/c1ccc(O)c(O)c1)O[C@@H]1C[C@](O)(C(=O)O)C[C@@H](O)[C@H]1O [chlorogenic acid]	0.016 mg/mL
CC(=O)Oc1ccccc1C(=O)O [aspirin]	>0.5 mg/mL
O=C1CCC[C@@H]2[C@H]3CCCN4CCC[C@H](CN12)[C@@H]34 [sophoridine]	>2 mg/mL
O=C1CCC[C@@H]2[C@H]3CCC[N+]4([O-])CCC[C@@H](CN12)[C@@H]34 (stereo partly shown) [oxymatrine]	>2 mg/mL
O=C1CCC[C@@H]2[C@H]3CCC[N+]4([O-])CCC[C@H](CN12)[C@@H]34 (stereo partly shown) [oxysophoridine]	>2 mg/mL
CCOC(=O)C1=C[C@@H](OC(CC)CC)[C@H](NC(C)=O)[C@@H](N)C1 [OS (template), Oseltamivir]	0.5 mg/mL
O=C1CCC[C@@H]2[C@H]3CCCN4CCC[C@@H](CN12)[C@@H]34 [matrine]	0.4 mg/mL

System: enterovirus 71
Conditions: mice challenged with a lethal dose of enterovirus 71; cited from earlier work

Compound	mortality and clinical symptoms
O=C1CCC[C@@H]2[C@H]3CCCN4CCC[C@@H](CN12)[C@@H]34 [matrine]	reduced the mortality and relieved clinical symptoms

System: Influenza virus strain A/Goose/Dalian/3/2001 (H9N2)
Format: cell-based, avian influenza virus H9N2
Conditions: not given
Remark: another data set of the same source

Compound	Activity: CPE
phillyrin	could not alleviate CPE; also recorded: The CPE of 0.5 and 0.25 mg/ml phillyrin-treated groups were more severe than that of the viral control group within 48 h
O=C(/C=C/c1ccc(O)c(O)c1)O[C@@H]1C[C@](O)(C(=O)O)C[C@@H](O)[C@H]1O [chlorogenic acid]	No differences between all treatment and control groups.
CC(=O)Oc1ccccc1C(=O)O [aspirin]	No differences between all treatment and control groups.
O=C1CCC[C@@H]2[C@H]3CCCN4CCC[C@H](CN12)[C@@H]34 [sophoridine]	The CPE of 2 mg/ml sophoridine-treated group was more severe than that of the viral control at 48 h. The CPE of other test groups with low concentration were consistent with that of the viral control at 48 h.
O=C1CCC[C@@H]2[C@H]3CCC[N+]4([O-])CCC[C@@H](CN12)[C@@H]34 (stereo partly shown) [oxymatrine]	No differences between all treatment and control groups.
O=C1CCC[C@@H]2[C@H]3CCC[N+]4([O-])CCC[C@H](CN12)[C@@H]34 (stereo partly shown) [oxysophoridine]	No differences between all treatment and control groups
CCOC(=O)C1=C[C@@H](OC(CC)CC)[C@H](NC(C)=O)[C@@H](N)C1 [OS (template), Oseltamivir]	The CPE of 0.5mg/ml OS-treated group was more severe than viral control group within 48 h. The CPE of groups 0.25, 0.125 and 0.0625 mg/ml were milder than viral control at 72 h.
O=C1CCC[C@@H]2[C@H]3CCCN4CCC[C@@H](CN12)[C@@H]34 [matrine]	could protect MDCK cells from H9N2 in a dose-dependent manner; also recorded: The CPE of 0.4, 0.2 and 0.1 mg/ml matrine groups were milder than that of the viral control group

System: enterovirus 71
Conditions: enterovirus 71 on rhabdomyosarcoma cells; cited from earlier work

Compound	viral RNA copy number
O=C1CCC[C@@H]2[C@H]3CCCN4CCC[C@@H](CN12)[C@@H]34 [matrine]	could suppress the viral RNA copy number on rhabdomyosarcoma cells

System: Kunming mice
Conditions: Kunming mice, acute toxicity, 95% confidence limit 88.08-280.31 mg/kg; cited from earlier work

Compound	LD50
O=C1CCC[C@@H]2[C@H]3CCCN4CCC[C@@H](CN12)[C@@H]34 [matrine]	157.13 mg/kg

Same assay, conditions: Kunming mice, acute toxicity; cited from earlier work

Compound	tolerable dose
O=C1CCC[C@@H]2[C@H]3CCCN4CCC[C@@H](CN12)[C@@H]34 [matrine]	above 80 mg/kg

Same assay, conditions: brain tissue of mice; cited from earlier work

Compound	Morphological observation
O=C1CCC[C@@H]2[C@H]3CCCN4CCC[C@@H](CN12)[C@@H]34 [matrine]	degenerative changes of the nerve cells in the brain tissue of the mice

System: avian influenza virus H9N2
Format: cell-based
Conditions: not given

Compound	Activity (see Table 1) qualitative	Activity (see Table 1) semi-quantitative	Activity against H9N2 in vitro (in words)
phillyrin	1	1	–
O=C(/C=C/c1ccc(O)c(O)c1)O[C@@H]1C[C@](O)(C(=O)O)C[C@@H](O)[C@H]1O [chlorogenic acid]	0	0	–
CC(=O)Oc1ccccc1C(=O)O [aspirin]	0	0	–
O=C1CCC[C@@H]2[C@H]3CCCN4CCC[C@H](CN12)[C@@H]34 [sophoridine]	1	1	low
O=C1CCC[C@@H]2[C@H]3CCC[N+]4([O-])CCC[C@@H](CN12)[C@@H]34 (stereo partly shown) [oxymatrine]	0	0	did not show any similar bioactivities
O=C1CCC[C@@H]2[C@H]3CCC[N+]4([O-])CCC[C@H](CN12)[C@@H]34 (stereo partly shown) [oxysophoridine]	0	0	did not show any similar bioactivities
CCOC(=O)C1=C[C@@H](OC(CC)CC)[C@H](NC(C)=O)[C@@H](N)C1 [OS (template), Oseltamivir]	1	3	had activity of alleviating CPE and HI against H9N2 in vitro
O=C1CCC[C@@H]2[C@H]3CCCN4CCC[C@@H](CN12)[C@@H]34 [matrine]	1	3	had activity of alleviating CPE and HI against H9N2 in vitro and high
